From ChEMBL document CHEMBL1201862, “PubChem BioAssay data set” (2004)
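1) Cells in 96-well plates. 2) Compound, 48 h, 5 concentrations. 3) Linear interpolation between surrounding doses. 4) Unreached endpoint = highest concentration. GI50 = concentration required for 50% inhibition of growth.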 Activity calls are given as the source filed them. Rule as the data show it: active = GI50 up to about 1.1 µM and inactive = higher.

What was measured:
Experiment in all cases: inhibition of tumour cell growth, NCI panel, 48 h
786-0 = tested on: 786-0
A549 = tested on: A549
BT-549 = tested on: BT-549
COLO 205 = tested on: COLO 205
DU-145 = tested on: DU-145
HCT-15 = tested on: HCT-15
Hs-578T = tested on: Hs-578T
IGROV-1 = tested on: IGROV-1
KM12 = tested on: KM12
MDA-MB-231 = tested on: MDA-MB-231
MDA-MB-435 = tested on: MDA-MB-435
MDA-N = tested on: MDA-N
OVCAR-3 = tested on: OVCAR-3
RXF 393 = tested on: RXF 393
SNB-19 = tested on: SNB-19
U-251 = tested on: U-251
UACC-257 = tested on: UACC-257
UO-31 = tested on: UO-31
DLD-1 = tested on: DLD-1
M19-MEL = tested on: M19-MEL

Measured: GI50

CC(NNC(=O)c1cc[n+]([BH2-]C#N)cc1)c1ccc(Cl)c(Cl)c1 (stereo not given)
31.6 µM: HCT-15
inactive: 786-0 47.5 µM | A549 32.5 µM | BT-549 27.9 µM | COLO 205 18.9 µM | DU-145 37.8 µM | Hs-578T 28.4 µM | IGROV-1 38.5 µM | KM12 40.5 µM | MDA-MB-231 24.8 µM | MDA-MB-435 34.8 µM | MDA-N 35.2 µM | OVCAR-3 26.9 µM | RXF 393 38.5 µM | SNB-19 38.3 µM | U-251 40.2 µM | UACC-257 36.3 µM | UO-31 30 µM

COC(=O)C(NC(=O)OC(C)(C)C)P(=O)(OC)OC (stereo not given)
> 100 µM: HCT-15
inactive: 786-0 > 100 µM | A549 > 100 µM | BT-549 > 100 µM | COLO 205 > 100 µM | DU-145 > 100 µM | Hs-578T > 100 µM | IGROV-1 > 100 µM | KM12 > 100 µM | MDA-MB-231 > 100 µM | MDA-MB-435 > 100 µM | MDA-N > 100 µM | OVCAR-3 > 100 µM | RXF 393 > 100 µM | SNB-19 > 100 µM | U-251 > 100 µM | UACC-257 > 100 µM | UO-31 > 100 µM

CC12CCC3C(CCC4CC(OC(=O)Cc5ccc(N(CCCl)CCCl)cc5)CCC43C)C1CCC(=O)N2 (stereo not given)
inactive: 786-0 15.5 µM | A549 15.5 µM | COLO 205 17.3 µM | DLD-1 18.7 µM | IGROV-1 16.2 µM | KM12 18.2 µM | M19-MEL 17.2 µM | OVCAR-3 18.2 µM | RXF 393 14.5 µM | SNB-19 18.3 µM | U-251 15.1 µM | UO-31 19.7 µM
14.7 µM: HCT-15

O=C1C2c3[nH]c4ccccc4c3C3CCSCC3C2C(=O)N1c1ccccc1 (stereo not given)
> 100 µM: HCT-15
inactive: 786-0 > 100 µM | A549 > 100 µM | COLO 205 > 100 µM | DLD-1 > 100 µM | IGROV-1 > 100 µM | KM12 > 100 µM | M19-MEL > 100 µM | OVCAR-3 > 100 µM | RXF 393 25.8 µM | SNB-19 > 100 µM | U-251 > 100 µM | UACC-257 > 100 µM | UO-31 > 100 µM

CC(C)=CCC/C(C)=C/CC/C(C)=C/CSc1ccc(Cl)cc1C(=O)O
20.4 µM: HCT-15
inactive: 786-0 17.1 µM | A549 16.5 µM | BT-549 20.2 µM | COLO 205 22.4 µM | DU-145 23.9 µM | Hs-578T 23.2 µM | IGROV-1 17.5 µM | KM12 17 µM | MDA-MB-231 27 µM | MDA-MB-435 20.2 µM | MDA-N 29.4 µM | OVCAR-3 17 µM | RXF 393 24.3 µM | SNB-19 18.4 µM | U-251 17.5 µM | UACC-257 27.8 µM | UO-31 17.5 µM

O=C1CCCCCCCCCCOC(=O)CCCCCCCCCCO1
> 100 µM: HCT-15
inactive: 786-0 > 100 µM | A549 > 100 µM | COLO 205 > 100 µM | DLD-1 > 100 µM | IGROV-1 > 100 µM | KM12 > 100 µM | M19-MEL > 100 µM | OVCAR-3 > 100 µM | RXF 393 > 100 µM | SNB-19 > 100 µM | U-251 > 100 µM | UACC-257 > 100 µM | UO-31 > 100 µM

Nc1ccc2c(c1)C1=NNC(=O)CC1C2 (stereo not given)
> 100 µM: HCT-15
inactive: A549 > 100 µM | COLO 205 > 100 µM | DLD-1 > 100 µM | IGROV-1 > 100 µM | KM12 > 100 µM | M19-MEL > 100 µM | OVCAR-3 > 31.6 µM | RXF 393 > 100 µM | SNB-19 > 100 µM | U-251 > 100 µM | UACC-257 > 100 µM | UO-31 > 100 µM

O=C(c1ccccc1)c1cc(Cl)ccc1NCn1nnc2ccccc21
42.8 µM: HCT-15
inactive: 786-0 > 100 µM | A549 46 µM | COLO 205 64.6 µM | DLD-1 > 100 µM | IGROV-1 > 100 µM | KM12 33.2 µM | M19-MEL 81.7 µM | OVCAR-3 93.3 µM | RXF 393 30.3 µM | SNB-19 > 100 µM | U-251 55.2 µM | UACC-257 55 µM | UO-31 35.8 µM

CC(C)N(C)C(=O)C12C3C4C1C1C2C3C41C#N (stereo not given)
> 100 µM: HCT-15
inactive: 786-0 > 100 µM | A549 > 100 µM | BT-549 > 100 µM | COLO 205 > 100 µM | DU-145 > 100 µM | Hs-578T > 100 µM | IGROV-1 > 100 µM | KM12 > 100 µM | MDA-MB-231 > 100 µM | MDA-MB-435 > 100 µM | MDA-N > 100 µM | OVCAR-3 > 100 µM | RXF 393 > 100 µM | SNB-19 > 100 µM | U-251 > 100 µM | UACC-257 > 100 µM | UO-31 > 100 µM
